The assay deals with T1, POLγA:G848S (Homo sapiens, UniProt P54098, G848S).
T1 sequence (P54098 1-1239 G848S): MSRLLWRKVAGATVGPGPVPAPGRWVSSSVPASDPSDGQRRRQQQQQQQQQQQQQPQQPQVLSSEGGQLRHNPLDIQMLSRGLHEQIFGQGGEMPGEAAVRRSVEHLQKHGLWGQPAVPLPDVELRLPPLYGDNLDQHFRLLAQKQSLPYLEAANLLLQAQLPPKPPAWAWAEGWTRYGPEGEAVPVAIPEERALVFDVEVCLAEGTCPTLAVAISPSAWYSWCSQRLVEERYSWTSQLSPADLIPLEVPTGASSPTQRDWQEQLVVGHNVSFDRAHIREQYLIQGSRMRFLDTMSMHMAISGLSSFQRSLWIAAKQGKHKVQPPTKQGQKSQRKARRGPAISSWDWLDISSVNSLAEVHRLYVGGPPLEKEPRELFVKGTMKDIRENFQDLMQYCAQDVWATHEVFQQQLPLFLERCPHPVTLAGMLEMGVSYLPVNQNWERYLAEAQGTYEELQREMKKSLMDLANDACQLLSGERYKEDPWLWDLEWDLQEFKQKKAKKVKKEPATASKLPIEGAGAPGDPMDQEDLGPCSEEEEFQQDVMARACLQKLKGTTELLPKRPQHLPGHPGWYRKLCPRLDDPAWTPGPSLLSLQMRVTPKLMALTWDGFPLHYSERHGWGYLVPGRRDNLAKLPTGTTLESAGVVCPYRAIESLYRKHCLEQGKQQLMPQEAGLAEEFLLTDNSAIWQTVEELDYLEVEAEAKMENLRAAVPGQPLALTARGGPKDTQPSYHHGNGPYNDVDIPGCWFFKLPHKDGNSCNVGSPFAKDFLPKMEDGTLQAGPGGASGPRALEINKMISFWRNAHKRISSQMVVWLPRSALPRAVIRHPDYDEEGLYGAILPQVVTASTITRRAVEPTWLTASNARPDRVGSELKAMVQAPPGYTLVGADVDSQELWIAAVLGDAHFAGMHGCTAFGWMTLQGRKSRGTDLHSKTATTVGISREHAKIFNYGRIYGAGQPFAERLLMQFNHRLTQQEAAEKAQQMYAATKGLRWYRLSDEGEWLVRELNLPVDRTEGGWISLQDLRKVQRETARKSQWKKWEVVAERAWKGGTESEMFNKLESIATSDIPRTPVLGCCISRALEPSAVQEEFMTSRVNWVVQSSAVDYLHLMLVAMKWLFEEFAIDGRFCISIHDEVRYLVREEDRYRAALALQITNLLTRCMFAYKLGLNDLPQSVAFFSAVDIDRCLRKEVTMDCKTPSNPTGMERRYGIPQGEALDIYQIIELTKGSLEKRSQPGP
T1 sequence (Q9UHN1 1-485 partner): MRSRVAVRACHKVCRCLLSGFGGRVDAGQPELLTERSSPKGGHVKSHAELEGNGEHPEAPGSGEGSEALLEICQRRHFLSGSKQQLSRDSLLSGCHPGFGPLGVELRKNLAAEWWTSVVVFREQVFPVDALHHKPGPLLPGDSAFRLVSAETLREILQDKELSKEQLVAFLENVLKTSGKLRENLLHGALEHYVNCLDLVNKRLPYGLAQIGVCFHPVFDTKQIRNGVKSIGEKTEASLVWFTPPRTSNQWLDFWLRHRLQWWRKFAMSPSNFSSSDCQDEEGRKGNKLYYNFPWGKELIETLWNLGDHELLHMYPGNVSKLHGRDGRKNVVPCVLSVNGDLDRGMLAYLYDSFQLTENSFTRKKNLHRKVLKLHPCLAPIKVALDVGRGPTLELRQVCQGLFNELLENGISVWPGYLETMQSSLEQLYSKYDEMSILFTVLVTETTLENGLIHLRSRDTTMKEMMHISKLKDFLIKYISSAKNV
The assay can be described thus: DNA polymerization assay, POLγA:G848S mutant. It counts as biochemical. The conditions noted are these: stimulation of polymerase activity, primed M13mp18 ssDNA, 37° C. 2 hours; read-out: G848S AC50. The protocol:
DNA Polymerization Assay to Monitor Effects on Human Wildtype POLγ and Four Disease-Causing Mutant Variants of Human POLγ.
The ability of small molecules to stimulate the polymerase activity of POLγ was analyzed in a quantitative fluorescence SYBR Green I assay with fluorescence intensity (FI) readout.
In the presence of dNTPs, wild type human POLγ and mutant derivatives thereof were incubated with single-stranded, circular M13mp18 ssDNA hybridized to a short DNA oligonucleotide that functions as a primer for initiation of DNA synthesis. POLγ and mutant derivatives thereof will extend the primer and use the M13mp18 molecule as a template to synthesize long stretches of double-stranded DNA. SYBR Green I, which is a double-stranded DNA-binding dye, was used to quantify formation of double-stranded DNA in the reaction. When bound to double-stranded DNA, SYBR Green I fluorescence increases by up to 100-fold.
The assay was performed in the 384-well plate format. Upon addition of compounds, changes in double-stranded DNA synthesis activity can be monitored by following effects on fluorescent intensity.
The reactions also contained the accessory POLγB subunit, and the human mitochondrial single-stranded DNA binding protein (mtSSB).
The DNA template mixture used in the assay contained 0.5 nM primed M13 mp18 ssDNA, 400 nM mtSSB, 0.1 mM Tris-HCl (pH 8.0), 0.1 mM dNTP, 10 mM MgCl2, 0.1 mg/mL BSA, 1 mM TCEP solution, and 0.02% Triton X-100. The DNA template mixture for the wild type protein contained either 100 μM dNTP, 1 μM dNTP, or 0.1 μM dNTP, designated in Table 2 as 100 μM, 1 μM, and 0.1 μM, respectfully.
Microplates with compounds (0.1 μL in each well) to be tested in the assay were prepared from 10 mM compound stocks in 100% DMSO, and equal amounts of DMSO without any compound were added to positive and negative control wells.
The protein mixture was dispensed (5 μL into each well) into compound plates and incubated at 37° C. for 15 minutes. After incubation, 5 μL of the DNA template mixture was dispensed into each well. The plates were then incubated at 37° C. for 2 hours.
During incubation, a combined stop buffer and detection reagent solution was prepared. The buffer contained 25 mM EDTA (pH 8.0), 0.02% Triton X-100, and SYBR Green I [Invitrogen] diluted 10,000× (for fluorescent readout). EDTA will stop the enzymatic reaction by chelating magnesium ions.
Regarding `Cc1ccc(C)c(S(=O)(=O)Nc2cccc(C(=O)N3CCOCC3C#N)c2)c1` (stereo not drawn) [Example 7, N-(3-(3-cyanomorpholine-4-carbonyl)phenyl)-2,5-dimethylbenzenesulfonamide], the AC50 (as a rule, the midpoint of the concentration-response curve, whichever way the signal moves) was 13 µM. As for `O=S(=O)(Nc1csc(-c2ccccc2)n1)c1ccccc1Cl` [Example 125, 2-chloro-N-(2-phenylthiazol-4-yl)benzenesulfonamide], the AC50 is 7 µM. Then `O=S(=O)(Nc1csc(-c2ccccc2)n1)c1cccc(C(F)(F)F)c1` [Example 151, N-(2-phenylthiazol-4-yl)-3-(trifluoromethyl)benzenesulfonamide], with 2 µM; and `Cc1cc(S(=O)(=O)Nc2cccc(C(=O)N3CCC[C@@H]3C)c2)c(C)cc1Cl` [Example 133, (S)-4-chloro-2,5-dimethyl-N-(3-(2-methylpyrrolidine-1-carbonyl)phenyl)benzenesulfonamide], with 18 µM; and `Cc1nc2c(NS(=O)(=O)c3cc(C)c(Cl)cc3C)cccc2s1` [Example 99, 4-chloro-2,5-dimethyl-N-(2-methylbenzo[d]thiazol-4-yl)benzenesulfonamide], with above 100 µM. As for `Cc1cc(S(=O)(=O)Nc2nsc(-c3ccccc3)n2)c(C)cc1Cl` [Example 131, 4-chloro-2,5-dimethyl-N-(5-phenyl-1,2,4-thiadiazol-3-yl)benzenesulfonamide], the AC50 was found to be 3 µM. In the case of `Cc1cc(S(=O)(=O)N[C@H]2CCCN(C(=O)c3ccccc3)C2)c(C)cc1Cl` [Example 129, (S)-N-(1-benzoylpiperidin-3-yl)-4-chloro-2,5-dimethylbenzenesulfonamide], the AC50 is above 100 µM. Then `O=S(=O)(Nc1csc(-c2ccccc2)n1)c1ccc2c(c1)CCO2` [Example 152, N-(2-phenylthiazol-4-yl)-2,3-dihydrobenzofuran-5-sulfonamide], with 6 µM; and `Cc1cc(S(=O)(=O)N[C@@H]2CCCN(C(=O)N3CCCC3)C2)c(C)cc1Cl` [Example 153, (R)-4-chloro-2,5-dimethyl-N-(1-(pyrrolidine-1-carbonyl)piperidin-3-yl)benzenesulfonamide], with above 100 µM; and `Cc1cc(NS(=O)(=O)c2cc(C)c(Cl)cc2C)cc(-c2ncc(C)s2)c1` [Example 110, 4-chloro-2,5-dimethyl-N-(3-methyl-5-(5-methylthiazol-2-yl)phenyl)benzenesulfonamide], with above 100 µM.

For `O=S(=O)(Nc1csc(-c2ccccc2)n1)c1ccc(F)c(F)c1` [Example 122, 3,4-difluoro-N-(2-phenylthiazol-4-yl)benzenesulfonamide], the AC50 is above 100 µM. For `Cc1ccc(C)c(S(=O)(=O)Nc2csc(-c3ccccc3)n2)c1` [Example 134, 2,5-dimethyl-N-(2-phenylthiazol-4-yl)benzenesulfonamide], the AC50 came out at 1 µM. On to `Cc1cc(S(=O)(=O)Nc2csc(-c3ccccc3)n2)ccc1Cl` [Example 148, 4-chloro-3-methyl-N-(2-phenylthiazol-4-yl)benzenesulfonamide], for which the AC50 is above 100 µM. Turning to `Cc1cnc(-c2ccc(C)c(NS(=O)(=O)c3cc(C)c(Cl)cc3C)c2)s1` [Example 98, 4-chloro-2,5-dimethyl-N-(2-methyl-5-(5-methylthiazol-2-yl)phenyl)benzenesulfonamide], the AC50 worked out at 9 µM.

With `Cc1cc(S(=O)(=O)Nc2cccc(C(=O)N3C[C@@H](F)C[C@H](F)C3)c2)c(C)cc1Cl` [Example 115, 4-chloro-N-(3-((3S,5S)-3,5-difluoropiperidine-1-carbonyl)phenyl)-2,5-dimethylbenzenesulfonamide], the AC50 is above 100 µM.

Turning to `Cc1ccc(C)c(S(=O)(=O)Nc2cccc(C(=O)N[C@@H](C)C3CC3)c2)c1` [Example 8, (S)-N-(1-cyclopropylethyl)-3-((2,5-dimethylphenyl)sulfonamido)benzamide], the AC50 was determined as 23 µM. Regarding `Cc1cc(S(=O)(=O)Nc2ccc3c(c2)CC(=O)N3)c(C)cc1Cl` [Example 185, 4-chloro-2,5-dimethyl-N-(2-oxoindolin-5-yl)benzenesulfonamide], the AC50 turned out to be 15 µM. As to `Cc1cc(S(=O)(=O)N[C@H]2CCCN(C(=O)[C@H]3CCCN3C)C2)c(C)cc1Cl` [Example 95, 4-chloro-2,5-dimethyl-N-((S)-1-(methyl-D-prolyl)piperidin-3-yl)benzenesulfonamide], the AC50 is above 100 µM. To `Cc1cc(S(=O)(=O)Nc2cccc(C(=O)N3CCCC[C@H]3C)c2)c(C)cc1Cl` [Example 9, (R)-4-chloro-2,5-dimethyl-N-(3-(2-methylpiperidine-1-carbonyl)phenyl)benzenesulfonamide] belongs 6 µM; to `O=S(=O)(Nc1csc(-c2ccccc2)n1)c1ccc2ncsc2c1` [Example 137, N-(2-phenylthiazol-4-yl)benzo[d]thiazole-6-sulfonamide], 11 µM. Turning to `Cc1cc(S(=O)(=O)N[C@H]2CCCN(C(=O)[C@@H]3CCCN3C)C2)c(C)cc1Cl` [Example 101, 4-chloro-2,5-dimethyl-N-((S)-1-(methyl-L-prolyl)piperidin-3-yl)benzenesulfonamide], the AC50 is above 100 µM.

Turning to `Cc1cc(S(=O)(=O)Nc2cccc(C(=O)N(CC(N)=O)C3CCCC3)c2)c(C)cc1Cl` [Example 113, N-(2-amino-2-oxoethyl)-3-((4-chloro-2,5-dimethylphenyl)sulfonamido)-N-cyclopentylbenzamide], the AC50 amounted to 11 µM. Then `O=S(=O)(Nc1csc(-c2ccccc2)n1)c1cccnc1` [Example 121, N-(2-phenylthiazol-4-yl)pyridine-3-sulfonamide], with above 100 µM. With `Cc1cc(S(=O)(=O)Nc2cccc(C(=O)N(C)C)c2)c(C)cc1Cl` [Example 12, 3-((4-chloro-2,5-dimethylphenyl)sulfonamido)-N,N-dimethylbenzamide], the concentration at half-maximal activity (AC50) is 26 µM.

The values are drawn from patent US20260138961A1, “MODULATORS OF MITOCHONDRIAL DNA REPLICATION” (Pretzel Therapeutics, Inc., priority 2022, published 2026).
